Columns and labels:
ER (estrogen receptor) = molecular target: T1, ER (estrogen receptor) (Homo sapiens, UniProt P03372); test: Inhibition of the binding of estrogen (E) to estrogen receptor (ER), MCF-7/ERE-luciferase reporter cells; format: cell-based; conditions: MCF-7/ERE-luciferase cells, 0.1 nM estradiol, 24 hours, chemiluminescence; read-out: IC50 value of inhibition effect on the binding of E to ER
T1 construct: MCF-7/ERE-luciferase monoclonal cells were selected by transfection of MCF-7; host or cells: MCF-7/ERE-luciferase (only the ERE-luciferase reporter was transfected)
T1 sequence (P03372 1-595): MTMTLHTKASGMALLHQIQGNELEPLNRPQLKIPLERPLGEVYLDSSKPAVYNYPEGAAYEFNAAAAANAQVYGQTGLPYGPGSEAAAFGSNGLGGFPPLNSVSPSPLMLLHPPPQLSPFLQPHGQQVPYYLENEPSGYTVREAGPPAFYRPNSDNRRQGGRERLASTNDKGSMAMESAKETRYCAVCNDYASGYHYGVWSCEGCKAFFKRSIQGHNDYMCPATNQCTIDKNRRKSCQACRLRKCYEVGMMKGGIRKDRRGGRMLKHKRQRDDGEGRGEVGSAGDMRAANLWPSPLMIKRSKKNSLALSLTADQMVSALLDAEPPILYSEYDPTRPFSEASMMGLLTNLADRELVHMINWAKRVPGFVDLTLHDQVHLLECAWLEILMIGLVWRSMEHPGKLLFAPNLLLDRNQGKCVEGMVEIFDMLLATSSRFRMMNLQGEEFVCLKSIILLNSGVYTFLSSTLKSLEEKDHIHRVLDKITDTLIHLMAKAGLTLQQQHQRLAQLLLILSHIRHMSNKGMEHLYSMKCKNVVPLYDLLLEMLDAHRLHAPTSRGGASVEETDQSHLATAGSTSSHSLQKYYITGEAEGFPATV
Procedure: The compounds of the present invention have an inhibition effect on the binding of E (estrogen) to ER (estrogen receptor), thereby blocking the binding of a complex of E and ER complex to ERE (estrogen responsive element), and subsequently blocking the expression of downstream luciferase protein.
The inhibition effect of the compounds on the binding of E to ER in vitro was tested by the following method.
The object of this experiment was to determine the inhibition effect of the compounds on the binding of E to ER, and the in vitro activity of the compounds was evaluated according to the IC50 values.
ERE was cloned into the upstream of the luciferase gene, and MCF-7/ERE-luciferase monoclonal cells were selected by transfection of MCF-7 (Cell Bank of Chinese Academy of Sciences typical culture preservation Committee, TCHu74). MCF-7/ERE-luciferase cells were inoculated into the MEM medium (hyclone, SH30024.01B) containing 10% charcoal stripped FBS (Moregate, FBSF), 1% sodium pyruvate (Sigma, S8636), 1% nonessential amino acids (Sigma, M7145) and 500 μg/ml G418 in a 96-well plates with a density of 30,000 cells/well, and the cells were incubated under the conditions of 37° C., and 5% CO2. The drug was prepared as a 20 mM stock solution that was later diluted with 100% DMSO in 10 fold concentration gradient, and then diluted 20-fold with the medium DMEM. After incubation for 24 hours, the medium was removed, then 0.1 nM estradiol (Sigma, E2758) and 10 μl of the drug diluted with the medium were added to each well, and the control group was added with DMSO. The plate was gently shaken and incubated in a incubator at 37° C., 5% CO2. After 24 hours, the cell culture medium was discarded, Then, 50 μl of the prepared luciferase substrate (Promega, E6110) was added to each well, and the plate was placed in the dark at room temperature for 10-15 minutes, then the chemiluminescence signal value was determined.
The inhibition effect of the compounds of the present invention on the binding of E to ER was tested by the experiment described above. The values of the chemiluminescence signal vs the logarithmic concentrations of the compounds were plotted using Graphpad Prism, and the measured IC50 values are shown in Table 1.

[1] = Pharmacokinetics assay in BALB/C nude mice after intragastrical administration; format: in vivo; conditions: female, mouse, po, 3 mg/kg, plasma; for Vd/F: read-out: Apparent Distribution Volume Vz/F; for AUC: read-out: Area Under Curve AUC; for CL/F: read-out: Clearance CL/F; for half-life: read-out: Half-Life t1/2 (converted); for MRT: read-out: Mean Residence Time MRT; for Cmax: read-out: Plasma Conc. Cmax
Procedure: BALB/C nude mice were used as test animals. The drug concentration in plasma at different time points was determined by LC/MS/MS after intragastrical administration of the compounds of Examples 1, 7, 8, 10, 11, 14, 16, 39 and 42 to BALB/C nude mice. The pharmacokinetic behavior of the compounds of the compounds of the present invention was studied and evaluated in BALB/C nude mice.
Eighty-one (81) female BALB/C nude mice, were equally divided into 9 groups, which were purchased from SINO-BRITSH SIPPR/BK LAB. ANIMAL LTD., CO, with Certificate No.: SOCK (Shanghai) 2008-0016.
The appropriate amount of each test compound was weighed, and successively added with 9% PEG400+0.5% tween 80+0.5% PVP+90% aqueous solution of 0.5% CMC.
After an overnight fasting, 81 female BALB/C nude mice were equally divided into 9 groups; and administered the test compounds intragastrically at an administration volume of 0.2 mL/10 g.
81 female Balb/C nude mice were administered the test compounds intragastrically after an overnight fasting. Blood (0.1 mL) was taken (3 animals at each time point) at 0.5, 1.0, 2.0, 4.0, 6.0, 8.0, 11.0, and 24.0 h after administration. The samples were stored in heparinized test tubes, and centrifuged for 10 minutes at 3,500 rpm to separate the blood plasma. The plasma samples were stored at −20° C.
The concentration of the prototype drug in the plasma and in the solution to be administered was determined by liquid chromatography tandem mass spectrometry (LC/MS MS).

MCF7 cells = test: Inhibition of the proliferation of MCF7 cells (Cell Titer-Glo); format: cell-based; conditions: Homo sapiens, MCF-7 cells, 72 hours, read-out: IC50 value of inhibition effect on the proliferation of MCF7 cells
Procedure: The object of this experiment was to determine the inhibition effect of the compounds on the proliferation activity of MCF7 cells, and the in vitro activity of the compounds was evaluated according to the IC50 values.
MCF-7 cells (Cell Bank of Chinese Academy of Sciences typical culture preservation Committee, TChu 74) were inoculated into the MEM medium (Hyclone, SH30024.01B) containing 10% FBS (Gibco, 10099-141), 1% sodium pyruvate (Sigma, S8636), and 1% nonessential amino acids (Sigma, M7145) in a 96-well plate with a density of 40,000 cells/well, and the cells were incubated under the conditions of 37° C., and 5% CO2. The compound was prepared as a 20 mM stock solution that was later diluted to 1000× final concentration with 100% DMSO, and then diluted with 20-fold medium containing 2% FBS. After incubation for 24 hours, the medium was removed and 90 μl of the medium containing 2% FBS and 10 μl of the drug were added to each well, 10 […] of DMSO was added to the control group, and the blank group contained only 100 μl medium containing 2% FBS. The plate was gently shaken and incubated in a incubator at 37° C., 5% CO2. After 72 hours later, 50 μl of mixed Cell Titer-Glo (Promega, G7571) was added to each well. The plate was shaken until the ingredients were mixed uniformly, and placed at room temperature for 10 minutes, then the chemiluminescence signal value was determined. The inhibition effect of the compound AZD9496 at 100 nM on the proliferation of MCF-7 cells was set to 100%, the maximum inhibition rate of other compounds=(chemiluminescence signal valuenegative control−chemiluminescence signal valuecompound 100 nm)/(chemiluminescence signal valuenegative control−chemiluminescence signal valueAZD9496 100 nm)×100%, and the negative control was a well with 0.5% DMSO.
The values of the chemiluminescence signals vs the logarithmic concentrations of the compounds were plotted using Graghpad Prism to obtain the IC50 values.

Row | IC50 (ER (estrogen receptor)) [nM] | Vd/F [1] [L/kg] | AUC [1] [µg·h/mL] | CL/F [1] [L/h/kg] | half-life [1] [h] | MRT [1] [h] | Cmax [1] [µg/mL] | IC50 (MCF7 cells) [nM] | SMILES
1 | 1.07 | 3.18 | 6.28 | 0.478 | 4.61 | 7.08 | 1.07 | 0.3 | CC1Cc2cc(-c3cnn(C)c3)ccc2C(c2ccc(/C=C/C(=O)O)cc2)N1c1ccc(C2CC2)cc1 [Example 10, (E)-3-(4-((1R,3R/1S,3S)-2-(4-Cyclopropylphenyl)-3-methyl-6-(1-methyl-1H-pyrazol-4-yl)-1,2,3,4-tetrahydroisoquinolin-1-yl)phenyl)acrylic acid]
2 | 2.15 | 1.43 | 9.12 | 0.329 | 3.01 | 4.87 | 1.56 | 0.93 | CC(C)c1ccc(N2C(C)Cc3cc(-c4cnn(C)c4)ccc3C2c2ccc(/C=C/C(=O)O)cc2)cc1 [Example 16, (E)-3-(4-((1R,3R/1S,3S)-2-(4-Isopropylphenyl)-3-methyl-6-(1-methyl-1H-pyrazol-4-yl)-1,2,3,4-tetrahydroisoquinolin-1-yl)phenyl)acrylic acid]
3 | 5.63 | – | – | – | – | – | – | 2.8 | CC1Cc2cc(-c3cn[nH]c3)ccc2C(c2ccc(/C=C/C(=O)O)cc2)N1c1ccc(C2CC2)cc1 [Example 36, (E)-3-(4-((1R,3R/1S,3S)-2-(4-cyclopropylphenyl)-3-methyl-6-(1H-pyrazol-4-yl)-1,2,3,4-tetrahydroisoquinolin-1-yl)phenyl)acrylic acid]
4 | 0.84 | – | – | – | – | – | – | 1.74 | Cc1ccc(N2C(C)Cc3cc(-c4cnn(C)c4)ccc3C2c2ccc(/C=C/C(=O)O)cc2)c(C)c1 [Example 37, (E)-3-(4-((1R,3R/1S,3S)-2-(2,4-Dimethylphenyl)-3-methyl-6-(1-methyl-1H-pyrazol-4-yl)-1,2,3,4-tetrahydroisoquinolin-1-yl)phenyl)acrylic acid]
5 | 0.18 | – | – | – | – | – | – | 0.38 | CCn1cc(-c2ccc3c(c2)C[C@@H](C)N(c2ccc(C(C)C)cc2)[C@@H]3c2c(F)cc(/C=C/C(=O)O)cc2F)cn1 [Example 38, (E)-3-(4-((1S,3R)-6-(1-Ethyl-1H-pyrazol-4-yl)-2-(4-isopropylphenyl)-3-methyl-1,2,3,4-tetrahydroisoquinolin-1-yl)-3,5-difluorophenyl)acrylic acid]
6 | 0.17 | 1.53 | 10.2 | 0.295 | 3.6 | 7.02 | 1.76 | 0.42 | CC(C)c1ccc(N2[C@H](c3c(F)cc(/C=C/C(=O)O)cc3F)c3ccc(-c4cnn(C)c4)cc3C[C@H]2C)cc1 [Example 39, (E)-3-(3,5-Difluoro-4-((1S,3R)-2-(4-isopropylphenyl)-3-methyl-6-(1-methyl-1H-pyrazol-4-yl)-1,2,3,4-tetrahydroisoquinolin-1-yl)phenyl)acrylic acid]
7 | 5.39 | – | – | – | – | – | – | 4.9 | CC1Cc2cc(-c3cnn(C)c3)ccc2C(c2ccc(/C=C/C(=O)O)cc2)N1c1ccc(CC2CC2)cc1 [Example 47, (E)-3-(4-((1R,3R/1S,3S)-2-(4-(Cyclopropylmethyl)phenyl)-3-methyl-6-(1-methyl-1H-pyrazol-4-yl)-1,2,3,4-tetrahydroisoquinolin-1-yl)phenyl)acrylic acid]
8 | 0.71 | – | – | – | – | – | – | 0.59 | CC(C)c1ccc(N2C(C)Cc3cc(-c4cn[nH]c4)ccc3C2c2ccc(/C=C/C(=O)O)cc2)cc1 [Example 48, (E)-3-(4-((1R,3R/1S,3S)-2-(4-Isopropylphenyl)-3-methyl-6-(1H-pyrazol-4-yl)-1,2,3,4-tetrahydroisoquinolin-1-yl)phenyl)acrylic acid]
9 | 3.46 | – | – | – | – | – | – | 1.04 | CC(C)c1ccc(N2C(C)Cc3cc(-c4cnn(C(F)F)c4)ccc3C2c2ccc(/C=C/C(=O)O)cc2)cc1 (stereo not drawn) [Example 49]

Source: patent US10398689B2, “Benzopiperidine derivative, preparation method thereof and medical use thereof” (Jiangsu Hengrui Medicine Co., Ltd., priority 2015, dated 2019)
